According to PubChem BioAssay (NCI):
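48-hour exposure; five concentrations; linearly interpolated endpoints. At the TGI there is no net growth.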

Tests used:
Test in all cases: inhibition of tumour cell growth, NCI panel, 48 h
LOX IMVI melanoma = system: LOX IMVI melanoma
786-0 renal = system: 786-0 renal
MDA-MB-435 = system: MDA-MB-435
MDA-N = system: MDA-N
SF-539 CNS = system: SF-539 CNS
HOP-62 NSCLC = system: HOP-62 NSCLC
RPMI-8226 leukemia = system: RPMI-8226 leukemia
OVCAR-8 ovarian = system: OVCAR-8 ovarian
SK-MEL-2 melanoma = system: SK-MEL-2 melanoma
K-562 leukemia = system: K-562 leukemia
MCF7 breast = system: MCF7 breast

Compound	TGI (LOX IMVI melanoma) [µM]	TGI (786-0 renal) [µM]	TGI (MDA-MB-435) [µM]	TGI (MDA-N) [µM]	TGI (SF-539 CNS) [µM]	TGI (HOP-62 NSCLC) [µM]	TGI (RPMI-8226 leukemia) [µM]	TGI (OVCAR-8 ovarian) [µM]	TGI (SK-MEL-2 melanoma) [µM]	TGI (K-562 leukemia) [µM]	TGI (MCF7 breast) [µM]
C(=Nc1ccc(-c2nc3ccccc3s2)cc1)c1cccs1	> 100	> 100	> 100	> 100	> 100	> 100	> 100	> 100	> 100	> 100	
O=c1cc(-c2ccccc2)oc2cc(OCCCCCCCCCCOc3ccc4c(=O)cc(-c5ccccc5)oc4c3)ccc12		> 100			> 100	> 100	> 100	> 100	> 100	> 100	
C/C(=N\Nc1nc2cc(F)ccc2s1)c1ccccn1		> 39	> 100		> 23.4	> 21.9	> 100	1.79	7.33	> 43.8	> 100
Cc1ccc(N2Cc3c(ccc4ccccc34)OP2(=S)N2CCCC2)cc1 (stereo not given)	> 100				> 100	> 100	> 100	> 100	> 100	> 100	> 100
Cc1cc(NS(=O)(=O)c2ccc(Nc3c4ccccc4nc4c(C(=O)NC(CO)(CO)CO)cccc34)cc2)no1	43.1	> 100	> 100	> 100		68.8	63.9	> 100	48.5	> 100	> 100
CC(=O)c1c(-c2ccco2)c(C#N)c(=S)n(C2OC(CO)C(O)C(O)C2O)c1C (stereo not given)	> 100		> 100	> 100	> 100	> 100	> 100	> 100		> 100	> 100
O=C(O)C12C=CC(C1)c1ccccc12 (stereo not given)	> 100	> 100				> 100	> 100	> 100		> 100	
C=C1C(=O)OC2C[C@@]3(C)CCCC(=C)C3CC12 (stereo not given in full)	2.59				3.7	34.9		24.6	12.7		
CN1COCN=C1NC#N	> 100				> 100	> 100	> 100		> 100	> 100	
NCCCNCCSP(=O)(O)O	> 750				> 750	> 750	> 750	> 511	> 700	> 750	> 750
O=Cn1c2ccccc2c2ccccc21	> 100	> 100			> 100	> 100	> 100	> 100	> 100	> 100	
COc1ccc(Cn2c(=O)c(OS(=O)(=O)C(F)(F)F)c(C)c3cc4ccccc4cc32)cc1	> 100	> 100	> 100	> 100	> 100	> 100		> 100	> 100	> 100	> 100
C=C1c2nc3ccccc3n2C=C(c2ccccc2)N1c1ccc(C)cc1	> 100	> 100	> 100		> 100		> 100	> 100	> 100	> 100	> 100
